Measurements reported in US8604046B2, “Substituted piperidine spiro pyrrolidinone and piperidinone, preparation and therapeutic use thereof” (Sanofi, priority 2008, dated 2013).

Legend:
rhesus H3 receptor [1] = target: T1, rhesus H3 receptor (Macaca mulatta, UniProt Q865E1); experiment: Rhesus H3 [3H]-methylhistamine radioligand binding assay; parameters: species or system rhesus monkey (Macacca Mulatta); details: [3H]-Methylhistamine 2 nM, rhesus H3 membranes, WGA SPA beads, Cheng-Prusoff
Method: (§1) Rhesus H3 membranes were prepared from the Flp-In T-REx 293 Cell Line (Invitrogen) stably transfected with pcDNA5/FRT/TO (Invitrogen) containing the rhesus monkey (Macacca Mulatta) 445 amino acid H3 receptor. (Genbank #AY231164). Stably transfected cultures were amplified in tissue culture flasks by standard tissue culture methods and induced to express rhesus H3 by exposure to 500 ng/ml tetracycline (Cellgro) for 24 hours. After induction, cells were dissociated from flasks utilizing Cell Stripper (Cellgro). Cells were centrifuged (1K×g, 5 min) and pellet frozen in an ethanol-dry ice bath to disrupt cell membranes. Frozen cell pellet was re-suspended in 5 mM HEPES (pH 7.4, Invitrogen) at 10 ml/1000 cm2 of harvested cells. The cell suspension was drawn through an 18 gauge needle (2-3×) followed by a 23 gauge needle (2-3×) to further disrupt cell membranes. The cell suspension was centrifuged (40K×g, 30 min). Cell membrane pellet was re-suspended in 5 mM HEPES (pH 7.4, Invitrogen) at a final protein concentration of 10 mg/ml. Rhesus H3 membranes were stored under liquid nitrogen prior to use in [3H]-Methylhistamine and GTP S radioligand binding assays.
Rhesus H3 radioligand binding assay was performed using rhesus H3 receptor membranes (prepared as described above), [3H]-Methylhistamine (Perkin Elmer) and WGA SPA beads (wheat germ agglutinin scintillation proximity assay) beads (Amersham). The assay was performed in 96-well Opti-Plates (Packard). Each reaction contained 50 μl rhesus H3 membranes (20-30 μg total protein), 50 μl WGA SPA beads (0.1 μg) and 50 μl of 83 Ci/mmol [^3H]-Methylhistamine (final concentration 2 nM) and 50 μl of tested compound. The compounds of this invention and/or vehicle were diluted with binding buffer from 10 mM DMSO stocks. Assay plates were sealed with TopSeal (Perkin Elmer) and mixed on shaker (25° C., 1 hour). Assay plates were read on TopCount scintillation counter (Packard). Results were analyzed by Hill transformation and Ki values were determined by Cheng-Prusoff equation.

rhesus H3 receptor [2] = target: T1, rhesus H3 receptor; experiment: GTPγS radioligand binding assay, inhibition of rhesus H3 constitutive functional activity (inverse agonism); format: biochemical, rhesus monkey (Macacca Mulatta); parameters: concentration or dose not given beside the values; details: rhesus H3 cell membranes, relative to basal levels
Method: as §1

T1 sequence (Q865E1 1-445): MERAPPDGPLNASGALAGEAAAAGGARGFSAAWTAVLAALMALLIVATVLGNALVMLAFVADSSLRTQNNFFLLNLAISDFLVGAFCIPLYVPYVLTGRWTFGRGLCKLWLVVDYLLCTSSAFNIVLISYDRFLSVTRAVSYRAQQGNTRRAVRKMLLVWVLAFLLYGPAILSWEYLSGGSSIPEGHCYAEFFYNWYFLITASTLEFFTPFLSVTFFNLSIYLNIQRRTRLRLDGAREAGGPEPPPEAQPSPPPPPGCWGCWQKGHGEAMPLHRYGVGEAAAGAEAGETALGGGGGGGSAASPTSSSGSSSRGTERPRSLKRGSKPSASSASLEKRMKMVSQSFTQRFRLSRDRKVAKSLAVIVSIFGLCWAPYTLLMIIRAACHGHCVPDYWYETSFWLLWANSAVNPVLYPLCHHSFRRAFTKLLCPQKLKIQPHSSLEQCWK

Structure (SMILES): Cc1cc(N2CC[C@@H](N3CCC[C@H]3C)C2)ccc1N1CCC2(CCN(C(=O)c3ccc(OC(F)(F)F)cc3)CC2)C1=O [Example 16, 2-[2-Methyl-4-((2R,3′R)-2-methyl-[1,3′]bipyrrolidinyl-1′-yl)-phenyl]-8-(4-trifluoromethoxy-benzoyl)-2,8-diaza-spiro[4.5]decan-1-one]
- Ki (rhesus H3 receptor [1]): 100 nM
- Inverse Agonism: % inhibition of Basal GTPγS binding in Rhesus H3 (rhesus H3 receptor [2]): −13%

Structure (SMILES): Cc1cc(N2CC[C@@H](N3CCC[C@@H]3C)C2)ccc1N1CCC2(CCNCC2)C1=O.Cl [Example 9, 2-[2-Methyl-4-((2S,3′R)-2-methyl-[1,3′]bipyrrolidinyl-1′-yl)-phenyl]-2,8-diaza-spiro[4.5]decan-1-one Hydrochloride]
- Ki (rhesus H3 receptor [1]): 0.6 nM
- Inverse Agonism: % inhibition of Basal GTPγS binding in Rhesus H3 (rhesus H3 receptor [2]): −35%

Structure (SMILES): C[C@H]1CCCCN1[C@H]1CCN(c2ccc(N3CCC4(CCN(C(=O)OC(C)(C)C)CC4)C3=O)cc2)C1 [Example 41, 2-{4-[3-((2S,3′S)-2-Methyl-piperidin-1-yl)-pyrrolidin-1-yl]-phenyl}-1-oxo-2,8-diaza-spiro[4.5]decane-8-carboxylic acid tert-butyl ester]
- Ki (rhesus H3 receptor [1]): 5.6 nM
- Inverse Agonism: % inhibition of Basal GTPγS binding in Rhesus H3 (rhesus H3 receptor [2]): −14%

Structure (SMILES): Cc1cc(N2CC[C@H](N3CCC[C@H]3C)C2)ccc1N1CCC2(CCN(C(=O)c3ccc(OC(F)(F)F)cc3)CC2)C1=O [Example 15, 2-[2-Methyl-4-((2R,3′S)-2-methyl-[1,3′]bipyrrolidinyl-1′-yl)-phenyl]-8-(4-trifluoromethoxy-benzoyl)-2,8-diaza-spiro[4.5]decan-1-one]
- Ki (rhesus H3 receptor [1]): 118 nM
- Inverse Agonism: % inhibition of Basal GTPγS binding in Rhesus H3 (rhesus H3 receptor [2]): −14%

Structure (SMILES): Cc1cc(N2CC[C@H](N3CCC[C@@H]3C)C2)ccc1N1CCC2(CCNCC2)C1=O [Example 6, 2-[2-Methyl-4-((2S,3′S)-2-methyl-[1,3′]bipyrrolidinyl-1′-yl)-phenyl]-2,8-diaza-spiro[4.5]decan-1-one]
- Ki (rhesus H3 receptor [1]): 11 nM
- Inverse Agonism: % inhibition of Basal GTPγS binding in Rhesus H3 (rhesus H3 receptor [2]): −22%

Structure (SMILES): Cc1cc(N2CCC(N3CCCC3C)C2)ccc1N1CCC2(CCN(C(=O)c3ccc(OC(F)(F)F)cc3)CC2)C1=O (centres unmarked) [Example 18, 2-[2-Methyl-4-(2-methyl-[1,3′]bipyrrolidinyl-1′-yl)-phenyl]-8-(4-trifluoromethoxy-benzoyl)-2,8-diaza-spiro[4.5]decan-1-one]
- Ki (rhesus H3 receptor [1]): 6.2 nM
- Inverse Agonism: % inhibition of Basal GTPγS binding in Rhesus H3 (rhesus H3 receptor [2]): −10%

Structure (SMILES): COc1ccc(S(=O)(=O)N2CCC3(CCN(c4ccc(N5CC[C@H](N6CCC[C@@H]6C)C5)cc4C(F)(F)F)C3=O)CC2)cc1 [Example 65, 8-(4-Methoxy-benzenesulfonyl)-2-[4-((2S,3′S)-2-methyl-[1,3′]bipyrrolidinyl-1′-yl)-2-trifluoromethyl-phenyl]-2,8-diaza-spiro[4.5]decan-1-one]
- Ki (rhesus H3 receptor [1]): 10.6 nM
- Inverse Agonism: % inhibition of Basal GTPγS binding in Rhesus H3 (rhesus H3 receptor [2]): −18%

Structure (SMILES): C[C@H]1CCCN1[C@H]1CCN(c2ccc(N3CCCC4(CCN(C(=O)OC(C)(C)C)CC4)C3=O)cc2)C1 [Example 21, 2-[4-((2S,3′S)-2-Methyl-[1,3′]bipyrrolidinyl-1′-yl)-phenyl]-1-oxo-2,9-diaza-spiro[5.5]undecane-9-carboxylic acid tert-butyl ester]
- Ki (rhesus H3 receptor [1]): 7.3 nM
- Inverse Agonism: % inhibition of Basal GTPγS binding in Rhesus H3 (rhesus H3 receptor [2]): −28%

Structure (SMILES): Cc1cc(N2CCC(N3CCCC3C)C2)ccc1N1CCC2(CCN(C(=O)OC(C)(C)C)CC2)C1=O (centres unmarked) [Example 5, 2-[2-Methyl-4-(2-methyl-[1,3′]bipyrrolidinyl-1′-yl)-phenyl]-1-oxo-2,8-diaza-spiro[4.5]decane-8-carboxylic acid tert-butyl ester]
- Ki (rhesus H3 receptor [1]): 18 nM
- Inverse Agonism: % inhibition of Basal GTPγS binding in Rhesus H3 (rhesus H3 receptor [2]): −13%

Structure (SMILES): C[C@H]1CCCN1[C@H]1CCN(c2ccc(N3CCCC4(CCN(Cc5ccccc5)CC4)C3=O)c(F)c2)C1 [Example 36, 9-Benzyl-2-[2-fluoro-4-((2S,3′S)-2-methyl-[1,3′]bipyrrolidinyl-1′-yl)-phenyl]-2,9-diaza-spiro[5.5]undecan-1-one]
- Ki (rhesus H3 receptor [1]): 0.06 nM
- Inverse Agonism: % inhibition of Basal GTPγS binding in Rhesus H3 (rhesus H3 receptor [2]): −13%
